ChEMBL document CHEMBL1154624, “Novel class of LIM-kinase 2 inhibitors for the treatment of ocular hypertension and associated glaucoma” (J Med Chem, 2009)

Tests used:
LIM domain kinase 2 = LIM domain kinase 2 (Homo sapiens, UniProt P53671); experiment: Inhibition of human recombinant LIMK2 expressed in baculovirus-Sf9 system by scintillation counting; type: cell-based
[1] = Increase in outflow facility in pig eye at 10 nM by eye-perfusion assay; type: functional, Sus scrofa
PTM = conditions: Sus scrofa, at 10 nM
Description: Inhibition of LIMK2 in pig PTM cells assessed as inhibition of cofilin-phosphorylation at 10 nM by Western blot

LIM domain kinase 1 = LIM domain kinase 1 (Homo sapiens, UniProt P53667); experiment: Inhibition of LIMK1
[2] = biological target: Rho-associated protein kinase 1 (Homo sapiens, UniProt Q13464); experiment: Inhibition of human ROCK1 expressed in baculovirus system
[3] = biological target: Rho-associated protein kinase 2 (Homo sapiens, UniProt O75116); experiment: Inhibition of human ROCK2
Homo sapiens [4] = species: Homo sapiens; experiment: Selectivity ratio of IC50 for human LIMK2 to IC50 for human ROCK1
Homo sapiens [5] = species: Homo sapiens; experiment: Selectivity ratio of IC50 for human LIMK2 to IC50 for human ROCK2
Mus musculus [6] = experiment: Inhibition of dexamethasone-induced ocular hypertension in C57BL/6J Tyr c-Brd x 129S5/SvEvBrD hybrid mouse assessed as reduction of intraocular pressure at 5 ug after 1 hr administered as xanthan gum formulation; type: functional, Eye
[7] = Increase in outflow facility in pig eye at 100 nM by eye-perfusion assay; type: functional, Sus scrofa
Mus musculus [8] = experiment: Inhibition of dexamethasone-induced ocular hypertension in C57BL/6J Tyr c-Brd x 129S5/SvEvBrD hybrid mouse assessed as reduction of intraocular pressure after 2 hrs administered as cosolvent/HPMC based formulation; type: functional, organism-based; conditions: Eye
Mus musculus [9] = experiment: Inhibition of dexamethasone-induced ocular hypertension in C57BL/6J Tyr c-Brd x 129S5/SvEvBrD hybrid mouse assessed as reduction of intraocular pressure at 3 ug after 2 hrs administered as cosolvent/HPMC based formulation; type: functional, Eye

Sequence of Rho-associated protein kinase 1 (Q13464 whole entry): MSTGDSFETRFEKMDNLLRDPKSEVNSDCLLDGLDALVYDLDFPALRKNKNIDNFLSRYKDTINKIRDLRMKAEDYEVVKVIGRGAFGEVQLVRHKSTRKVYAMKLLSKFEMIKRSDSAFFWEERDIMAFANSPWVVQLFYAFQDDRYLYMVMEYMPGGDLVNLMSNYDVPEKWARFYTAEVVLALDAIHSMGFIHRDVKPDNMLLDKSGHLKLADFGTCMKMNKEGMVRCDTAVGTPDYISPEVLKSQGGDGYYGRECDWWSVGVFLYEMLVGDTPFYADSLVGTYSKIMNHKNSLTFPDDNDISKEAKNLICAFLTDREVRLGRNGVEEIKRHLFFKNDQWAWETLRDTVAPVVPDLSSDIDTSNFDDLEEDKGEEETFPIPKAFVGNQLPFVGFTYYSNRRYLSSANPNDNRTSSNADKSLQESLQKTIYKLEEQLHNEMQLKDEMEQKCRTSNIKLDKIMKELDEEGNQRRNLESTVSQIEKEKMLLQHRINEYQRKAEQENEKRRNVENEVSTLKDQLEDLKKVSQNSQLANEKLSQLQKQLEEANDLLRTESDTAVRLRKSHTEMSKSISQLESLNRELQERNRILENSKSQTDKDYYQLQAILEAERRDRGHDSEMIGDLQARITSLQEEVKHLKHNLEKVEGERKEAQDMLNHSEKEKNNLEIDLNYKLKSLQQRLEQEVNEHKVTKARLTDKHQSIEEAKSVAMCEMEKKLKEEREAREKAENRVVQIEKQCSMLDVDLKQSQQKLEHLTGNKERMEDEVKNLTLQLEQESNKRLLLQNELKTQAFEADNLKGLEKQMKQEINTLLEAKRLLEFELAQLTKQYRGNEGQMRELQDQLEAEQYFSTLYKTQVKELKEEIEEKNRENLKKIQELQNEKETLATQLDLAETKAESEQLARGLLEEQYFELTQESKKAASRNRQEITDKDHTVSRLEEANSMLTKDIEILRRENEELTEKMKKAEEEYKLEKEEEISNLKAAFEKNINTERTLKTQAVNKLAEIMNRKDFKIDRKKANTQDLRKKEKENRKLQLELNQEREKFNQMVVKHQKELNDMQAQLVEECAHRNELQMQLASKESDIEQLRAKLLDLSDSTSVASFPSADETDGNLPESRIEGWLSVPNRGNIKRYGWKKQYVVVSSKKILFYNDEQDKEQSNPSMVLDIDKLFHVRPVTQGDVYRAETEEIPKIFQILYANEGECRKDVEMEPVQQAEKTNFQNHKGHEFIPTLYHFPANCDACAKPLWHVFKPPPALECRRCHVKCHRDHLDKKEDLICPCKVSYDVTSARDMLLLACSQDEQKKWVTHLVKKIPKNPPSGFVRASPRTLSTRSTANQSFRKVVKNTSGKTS
Sequence of Rho-associated protein kinase 2 (O75116 whole entry): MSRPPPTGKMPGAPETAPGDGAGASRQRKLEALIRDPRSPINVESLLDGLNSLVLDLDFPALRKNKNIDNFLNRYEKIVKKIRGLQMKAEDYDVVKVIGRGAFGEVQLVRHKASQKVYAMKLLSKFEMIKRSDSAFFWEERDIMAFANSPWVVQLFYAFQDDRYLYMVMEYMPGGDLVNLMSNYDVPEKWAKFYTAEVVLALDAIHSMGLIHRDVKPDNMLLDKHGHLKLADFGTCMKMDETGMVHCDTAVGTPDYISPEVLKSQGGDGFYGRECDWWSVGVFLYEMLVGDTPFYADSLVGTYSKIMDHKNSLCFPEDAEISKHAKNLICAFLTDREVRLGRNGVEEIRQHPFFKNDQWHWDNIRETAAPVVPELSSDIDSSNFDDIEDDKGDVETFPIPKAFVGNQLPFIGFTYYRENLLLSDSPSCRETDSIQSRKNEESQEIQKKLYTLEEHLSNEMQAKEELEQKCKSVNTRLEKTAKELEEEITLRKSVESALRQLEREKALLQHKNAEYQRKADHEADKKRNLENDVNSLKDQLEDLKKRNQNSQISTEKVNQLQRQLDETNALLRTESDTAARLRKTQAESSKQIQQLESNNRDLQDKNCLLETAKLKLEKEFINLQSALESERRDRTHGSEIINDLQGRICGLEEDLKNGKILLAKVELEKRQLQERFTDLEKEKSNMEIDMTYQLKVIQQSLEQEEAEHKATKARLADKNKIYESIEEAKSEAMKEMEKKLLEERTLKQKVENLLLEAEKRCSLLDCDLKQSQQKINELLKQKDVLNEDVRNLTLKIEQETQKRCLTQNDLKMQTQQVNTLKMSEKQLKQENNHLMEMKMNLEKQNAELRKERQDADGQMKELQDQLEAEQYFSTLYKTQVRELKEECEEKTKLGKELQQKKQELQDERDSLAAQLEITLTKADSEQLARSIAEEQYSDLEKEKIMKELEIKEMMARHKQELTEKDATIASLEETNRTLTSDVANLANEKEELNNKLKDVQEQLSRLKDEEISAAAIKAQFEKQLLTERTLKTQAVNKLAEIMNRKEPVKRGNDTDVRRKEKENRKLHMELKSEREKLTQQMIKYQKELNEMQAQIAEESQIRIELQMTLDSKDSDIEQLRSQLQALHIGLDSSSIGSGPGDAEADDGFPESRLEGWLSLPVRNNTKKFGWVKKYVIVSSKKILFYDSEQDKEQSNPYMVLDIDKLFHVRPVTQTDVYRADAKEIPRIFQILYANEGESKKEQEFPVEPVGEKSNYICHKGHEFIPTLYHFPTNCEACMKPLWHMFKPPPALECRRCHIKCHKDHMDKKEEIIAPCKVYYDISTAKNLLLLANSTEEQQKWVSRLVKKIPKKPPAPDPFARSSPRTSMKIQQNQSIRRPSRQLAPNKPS
Sequence of LIM domain kinase 2 (P53671 whole entry, the tested form may be a part): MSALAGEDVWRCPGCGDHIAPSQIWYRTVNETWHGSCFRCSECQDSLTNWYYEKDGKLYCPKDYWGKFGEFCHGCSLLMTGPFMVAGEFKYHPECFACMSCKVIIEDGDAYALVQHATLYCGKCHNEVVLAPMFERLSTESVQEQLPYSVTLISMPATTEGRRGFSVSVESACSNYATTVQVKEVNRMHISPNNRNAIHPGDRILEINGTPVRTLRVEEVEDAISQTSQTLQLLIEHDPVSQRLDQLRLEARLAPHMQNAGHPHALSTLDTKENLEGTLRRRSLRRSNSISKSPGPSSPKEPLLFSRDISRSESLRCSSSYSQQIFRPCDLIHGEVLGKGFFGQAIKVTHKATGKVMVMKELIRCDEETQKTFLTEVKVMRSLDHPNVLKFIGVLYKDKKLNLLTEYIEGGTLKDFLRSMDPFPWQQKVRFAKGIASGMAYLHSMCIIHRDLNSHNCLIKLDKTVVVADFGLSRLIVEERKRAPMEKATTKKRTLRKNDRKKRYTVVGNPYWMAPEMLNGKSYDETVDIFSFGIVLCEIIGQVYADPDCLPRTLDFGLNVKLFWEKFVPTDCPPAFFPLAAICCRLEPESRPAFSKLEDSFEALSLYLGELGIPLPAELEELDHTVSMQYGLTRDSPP
Sequence of LIM domain kinase 1 (P53667 whole entry, the tested form may be a part): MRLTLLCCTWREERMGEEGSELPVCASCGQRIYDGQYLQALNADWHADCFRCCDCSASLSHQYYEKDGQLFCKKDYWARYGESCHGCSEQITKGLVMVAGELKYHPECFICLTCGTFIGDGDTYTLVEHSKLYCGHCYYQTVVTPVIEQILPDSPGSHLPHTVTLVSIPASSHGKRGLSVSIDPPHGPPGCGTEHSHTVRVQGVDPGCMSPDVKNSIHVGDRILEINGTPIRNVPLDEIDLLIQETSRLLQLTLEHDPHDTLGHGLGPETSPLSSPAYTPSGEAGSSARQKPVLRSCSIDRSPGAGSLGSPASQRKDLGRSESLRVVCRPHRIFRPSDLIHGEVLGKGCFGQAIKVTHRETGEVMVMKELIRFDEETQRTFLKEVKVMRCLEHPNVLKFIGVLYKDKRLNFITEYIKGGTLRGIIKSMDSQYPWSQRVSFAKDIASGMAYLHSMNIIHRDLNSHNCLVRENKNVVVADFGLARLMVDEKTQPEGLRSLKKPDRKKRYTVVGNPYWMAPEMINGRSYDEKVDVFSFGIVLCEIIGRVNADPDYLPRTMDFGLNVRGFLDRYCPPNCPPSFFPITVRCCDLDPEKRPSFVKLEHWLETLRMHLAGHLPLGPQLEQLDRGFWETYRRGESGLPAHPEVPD

Row | Compound | IC50 (LIM domain kinase 2) [nM] | inhibition (PTM) [%] | further results
1 | Cc1c[nH]c2ncnc(N3CCN(C(=O)Nc4cccc(Br)c4)[C@H](C)C3)c12 | 37 | – | –
2 | C[C@@H](N)c1ccc(C(=O)Nc2ccnc3[nH]ccc23)cc1 [Y-39983] | – | – | Activity [1]: 28%
3 | Cc1c[nH]c2ncnc(N3CCN(/C(=N/C#N)Nc4cccc(C(=O)NCCO)c4)[C@@H](C)C3)c12 | – | 9 | –
4 | COc1cccc(NC(=O)N2CCN(c3ncnc4[nH]cc(C)c34)CC2)c1 | 140 | – | –
5 | Cc1c[nH]c2ncnc(N3CCN(C(=O)Nc4cccc(Br)c4)[C@@H](C)C3)c12 | 3.9 | – | –
6 | Cc1c[nH]c2ncnc(N3CCN(C(=O)Nc4ccc(F)c(Br)c4)[C@@H](C)C3)c12 | 3.2 | 51 | IC50 (LIM domain kinase 1): 6.6 nM; IC50 [2]: 51 nM; IC50 [3]: 280 nM; Ratio IC50 (Homo sapiens [4]): 16; Ratio IC50 (Homo sapiens [5]): 88; Activity (Mus musculus [6]): 3.6 mmHg
7 | Cc1c[nH]c2ncnc(N3CCN(/C(=N/C#N)Nc4cccc(Br)c4)[C@@H](C)C3)c12 | – | 50 | Ratio IC50 (Homo sapiens [4]): > 100; Ratio IC50 (Homo sapiens [5]): > 900; Activity (Mus musculus [6]): 3.7 mmHg; Activity [7]: 30%
8 | Cc1c[nH]c2ncnc(N3CCN(/C(=N/C#N)Nc4cccc(S(=O)(=O)NCCO)c4)[C@@H](C)C3)c12 | – | 22 | –
9 | Cc1cccc(NC(=O)C2CCN(c3ncnc4[nH]cc(C)c34)CC2)c1 | 650 | – | –
10 | Cc1c[nH]c2ncnc(N3CCN(/C(=N/S(C)(=O)=O)Nc4cccc(Br)c4)[C@@H](C)C3)c12 | 6.8 | 48 | –
11 | Cc1c[nH]c2ncnc(N3CCN(C(=O)Nc4cccc(Cl)c4)[C@@H](C)C3)c12 | 2.3 | 0 | –
12 | Cc1c[nH]c2ncnc(N3CCC(C(=O)Nc4ccccc4)CC3)c12 | 800 | – | –
13 | COc1ccc(NC(=O)C2CCN(c3ncnc4[nH]cc(C)c34)CC2)cc1 | 1500 | – | –
14 | Cc1c[nH]c2ncnc(N3CC4CCC(C3)N4C(=O)Nc3cccc(Br)c3)c12 | 16 | – | –
15 | Cc1c[nH]c2ncnc(N3CCN(C(=O)Nc4cccc(C(=O)NC(C)C)c4)[C@@H](C)C3)c12 | 5.5 | 0 | –
16 | Cc1c[nH]c2ncnc(N3CCN(/C(=N/C#N)Nc4cccc(S(=O)(=O)NC(C)C)c4)[C@@H](C)C3)c12 | 1.7 | 0 | –
17 | Cc1c[nH]c2ncnc(N3CCN(C(=Nc4cccc(C(=O)NCCO)c4)NC#N)[C@@H](C)C3)c12 | 0.8 | – | –
18 | Cc1c[nH]c2ncnc(N3CCN(C(=O)Nc4cccc(OC(=O)N(C)C)c4)[C@@H](C)C3)c12 | 1.2 | 61 | IC50 (LIM domain kinase 1): 3.2 nM; IC50 [2]: 490 nM; IC50 [3]: 1100 nM; Ratio IC50 (Homo sapiens [4]): > 100; Ratio IC50 (Homo sapiens [5]): > 900; Activity (Mus musculus [6]): 3.6 mmHg; Activity (Mus musculus [8]): Dose-dependent effect; Activity (Mus musculus [9]): -3.2 mmHg; Activity [7]: 30%
19 | Cc1c[nH]c2ncnc(N3CCN(C(=Nc4cccc(S(=O)(=O)NCCO)c4)NC#N)[C@@H](C)C3)c12 | 2.9 | – | –
20 | Cc1ccccc1NC(=O)C1CCN(c2ncnc3[nH]cc(C)c23)CC1 | 11500 | – | –
21 | Cc1c[nH]c2ncnc(N3CCC(C(=O)Nc4cccc(Br)c4)CC3)c12 | 300 | – | –
22 | Cc1c[nH]c2ncnc(N3CCN(/C(=N/C#N)Nc4cccc(C(=O)NC(C)C)c4)[C@@H](C)C3)c12 | – | 0 | –
23 | Cc1c[nH]c2ncnc(N3CCN(/C(=N/C#N)Nc4cccc(Br)c4)[C@@H](C(C)C)C3)c12 | 4.2 | – | –
24 | CC1CN(c2ncnc3[nH]ccc23)CCN1/C(=N/C#N)Nc1cccc(Br)c1 (racemic) | 8.1 | – | –
25 | Cc1c[nH]c2ncnc(N3CCN(/C(=N/C#N)Nc4cccc(F)c4)[C@@H](C)C3)c12 | 1.8 | 39 | –

Row | Compound | IC50 (LIM domain kinase 2) [nM] | inhibition (PTM) [%] | further results
26 | Cc1c[nH]c2ncnc(N3CCN(/C(=N\C#N)Nc4cccc(Br)c4)[C@@H](C)C3)c12 | 0.9 | – | IC50 (LIM domain kinase 1): 0.5 nM; IC50 [2]: 260 nM; IC50 [3]: 2700 nM
27 | Cc1cccc(NC(=O)N2CCN(c3ncnc4[nH]cc(C)c34)CC2)c1 | 92 | – | –
28 | Cc1c[nH]c2ncnc(N3CCC(C(=O)Nc4cccc(Oc5ccccc5)c4)CC3)c12 | 64 | – | –
29 | Cc1c[nH]c2ncnc(N3CCN(/C(=N/C#N)Nc4cccc(Br)c4)CC3)c12 | 11 | – | –
30 | C[C@H]1CN(c2nc(Cl)nc3[nH]ccc23)CCN1C(=Nc1cccc(Br)c1)NC#N | > 1000 | – | –
31 | CC(C)(C)NC[C@H](O)COc1nsnc1N1CCOCC1 [TIMOLOL] | – | – | Activity (Mus musculus [9]): -5.2 mmHg
32 | C[C@H]1CN(c2ncnc3[nH]cc(Cl)c23)CCN1/C(=N/C#N)Nc1cccc(Br)c1 | 1.2 | – | –
33 | Cc1c[nH]c2ncnc(N3CCN(/C(=N/C#N)Nc4cccc(Cl)c4)[C@@H](C)C3)c12 | 1.6 | 49 | –
34 | Cc1c[nH]c2ncnc(N3CCN(/C(=N/C#N)Nc4cccc(C(F)(F)F)c4)[C@@H](C)C3)c12 | 1.9 | 12 | –
35 | Cc1c[nH]c2ncnc(N3CCN(/C(=N/C#N)Nc4cccc(C(=O)NCCN(C)C)c4)[C@@H](C)C3)c12 | 3.4 | 0 | –
36 | Cc1c[nH]c2ncnc(N3CC4CC3CN4C(=Nc3cccc(Br)c3)NC#N)c12 (stereo not given) | 76 | – | –
37 | Cc1c[nH]c2ncnc(N3CCN(C(=O)Nc4cccc(Br)c4)CC3)c12 | 38 | – | –
38 | Cc1c[nH]c2ncnc(N3CCN(/C(=N/C#N)Nc4cccc(C(C)(C)C)c4)[C@@H](C)C3)c12 | – | 10 | –
39 | Cc1c[nH]c2ncnc(N3CCN(C(=O)Nc4cccc(C(=O)NC(CO)CO)c4)[C@@H](C)C3)c12 | 3 | 27 | –
40 | Cc1cc2c(N3CCN(/C(=N/C#N)Nc4cccc(Br)c4)[C@@H](C)C3)ncnc2[nH]1 | 4.2 | – | –
41 | Cc1c[nH]c2ncnc(N3CCN(/C(=N/C#N)Nc4cccc(C#N)c4)[C@@H](C)C3)c12 | 1.2 | 18 | –
42 | Cc1c[nH]c2ncnc(N3CCN(C(=Nc4cccc(C(C)(C)C)c4)NC#N)[C@@H](C)C3)c12 | 1.1 | – | –
43 | Cc1c[nH]c2ncnc(N3C[C@H](C)N(C(=Nc4cccc(Br)c4)NC#N)C[C@H]3C)c12 | 3.9 | – | –
44 | Cc1c[nH]c2ncnc(N3CCN(/C(=N/C#N)Nc4ccc(F)c(Br)c4)[C@@H](C)C3)c12 | 1.5 | 63 | IC50 (LIM domain kinase 1): 3.7 nM; IC50 [2]: 310 nM; IC50 [3]: 2200 nM; Ratio IC50 (Homo sapiens [4]): > 100; Ratio IC50 (Homo sapiens [5]): > 900
45 | Cc1c[nH]c2ncnc(N3CCN(C(=Nc4cccc(C(=O)NC(C)C)c4)NC#N)[C@@H](C)C3)c12 | 3.5 | – | –
46 | Cc1c[nH]c2ncnc(N3CCN(C(=O)Nc4cccc(C(=O)NCCO)c4)[C@@H](C)C3)c12 | 3 | 0 | –
47 | Cc1ccc(NC(=O)C2CCN(c3ncnc4[nH]cc(C)c34)CC2)cc1 | 1300 | – | –
48 | Cc1c[nH]c2ncnc(N3C[C@@H](C)N(C(=O)Nc4cccc(Br)c4)[C@@H](C)C3)c12 | 133 | – | –
49 | COc1cccc(NC(=O)C2CCN(c3ncnc4[nH]cc(C)c34)CC2)c1 | 520 | – | –
